The text below walks through data of US9266933B2, “Polypeptides inhibiting neovascularization and uses thereof” (SHANGHAI FIRST PEOPLE'S HOSPITAL, priority 2011, dated 2016).

Entries after “also recorded” stand apart in the source; their conditions may differ.

Assay [1] relates to chick embryo chorioallantoic membrane. Description: Angiogenesis in chick embryo chorioallantoic membrane model. The class given is in vivo. The settings on record: low (10 μg/piece) and high (50 μg/piece) concentration on filter paper, 2 days, compared with PBS group; **P<0.01. Here is the method:
Model of chick embryo chorioallantoic membrane was used and the methods were as follows:
Upon sterilization, the chick fertile eggs of 1-2 days old (purchased from 36 Lianhuaqing Chicken Farm of Shanghai Xinghuo Farm) were placed into a thermhygrostat (purchased from Shanghai Boxun industrial Co., ltd. SPX-250C) (T=37° C., Humidity H=60-70%) to incubate for 5 days. Every day, the eggs were overturned for one time at morning and night. Onto the filter paper (Whatman quantitative filter papers, Sigma, ashless, Grade 42, Cat No 1442-042, 42.5 mm Φ×100 circles) containing cortisone acetate (5 μg/μl, 5 μl/piece), PBS (5 μl/piece), low (2 μg/μl) or high (10 μg/μl) concentration of small peptides ZY3 (5 μl/piece) were dropped respectively. After air-dried, the filter paper was placed between the major vessels on chorioallantoic membrane of fertile eggs and the eggs were sealed. The eggs were placed in the thermhygrostat (T=37° C., Humidity H=60-70%) to incubate for another 2 days (24 hours a day) without overturning. Then the chorioallantoic membrane was thoroughly exposed and photographed (the range was within 5 mm around the filter paper). The number of 3-5 subordinate microvessels in the area within 2.5 mm around the filter paper was counted. SPSS11.0.1 was used for statistical analysis.

Assay [2] concerns Human Umbilical Vein Endothelial Cells (HUVECs). The assay can be described thus: MTS proliferation assay of VEGF-stimulated HUVECs. To be noted: VEGF + ZY3 in different concentrations, 24-hour incubation, compared with VEGF group; concentration-dependent; *P<0.05, **P<0.01. The class given is cell-based. Here is the method: The MTS method was used as follows:
Primary Human Umbilical Vein Endothelial Cells (HUVECs) (purchased from ScienCell Co.) were inoculated into a 96-well plate with an inoculation concentration of 2×10^4/ml. After cells had adhered to the wall, serum-free culture medium ECM was added and the cells were cultivated at 37° C. for 24 hours. Then the serum-free culture medium ECM as negative control, VEGF (100 ng/ml) (purchased from Sigma Co.) as positive control, VEGF (100 ng/well)+small peptide ZY3 in different concentrations as treatment groups were added in each well. After a 24-hour incubation, 20 μl 1 MTS solution (purchased from Promega Corporation) was added in each well. After incubation at 37° C. for 4 hours, the absorbance in each well was measured at 490 nm by using microplate reader (Bio-Rad Co.). The proliferation activity of cells was determined according to OD490. Finally, SPSS11.0.1 was used for statistical analysis.
Derived Polypeptides were prepared as follows, and the inhibition effect of each ZY3 derived polypeptides on proliferation of Human Umbilical Vein Endothelial Cells HUVECs was determined according to the methods in Example 3.
A general note: Tetrazolium assays rely on reduction of a dye to a coloured formazan, in cell work by metabolically active cells.

The subject of a further assay is mouse cornea. Description: Mouse corneal stroma micropocket model of VEGF-induced pathological angiogenesis. The class given is in vivo, C57BL/6 mice. The settings on record: VEGF + ZY3 low (0.5 μg/granule) and high (2 μg/granule) concentration, 5 days after operation, compared with VEGF group; **P<0.01. On the procedure: Mice model of the corneal stroma micropocket was used and the methods were as follows:
Male C57BL/6 mice (4-5 week old) were intraperitoneally injected with 2% pentobarbital (about 0.1 ml/mouse) for anesthesia. 4% hydrochloric oxybuprocaine ophthalmic solution was locally administrated. Under the stereo microscope, OT syringe needle and 2 ml syringe needle were used to perform a blunt dissection between the layers of corneal stroma at 0.8-1 mm from corneoscleral limbus. A pouch of about 0.6×0.8 mm was formed. […] Neovascularization area were calculated as followed: Area (mm^2)=0.5*3.14*VL (mm)*CN*0.4 (mm) SPSS1L 0.1 was used for statistical analysis.

In assay [3] the test system is Human Umbilical Vein Endothelial Cells (HUVECs). Description: Matrigel lumen formation assay of HUVECs. To be noted: VEGF + ZY3 in different concentrations (incl. 160 μM), 6 hours, compared with VEGF group; concentration-dependent; *P<0.05. The class given is cell-based. Here is the method: The Matrigel method was used as follows:
A 50 μl/well Matrigel (purchased from BD Co.) was added into a 96-well plate, and then the plate was incubated at 37° C. for 30 min. Upon solidification, the primary HUVECs were inoculated onto the surface of Matrigel with an inoculation concentration of 8×10^6/ml. Then the serum-free culture medium ECM as negative control, VEGF (100 ng/ml) (purchased from Sigma Co.) as positive control, VEGF (100 ng/well)+small peptide ZY3 in different concentrations as treatment groups were added in each well. The plate wad incubated at 37° C. After treating for 6 hours, photos were taken for cells in 3 randomized fields in the plate under the microscope (×200 fold.), and the sum of the maximum lumina diameter formed in the cells was calculated. Finally, SPSS11.0.1 was used for statistical analysis.

Regarding “TANVTMQLLKIRSGDRPSYVELTFSQH (angiogenesis-inhibiting peptide ZY3)”, the “angiogenesis of chick embryo chorioallantoic membrane (count of 3-5 subordinate microvessels within 2.5 mm around the filter paper)” value in assay [1] is on record as “significant inhabitation effects; also recorded: significantly inhibited”. In addition, the “proliferation of HUVECs (OD490, MTS)” value in assay [2] was “significantly inhibited”. Besides, in the assay on mouse cornea, the “corneal angiogenesis (neovascularization area on mouse cornea)” value was “significantly inhibited”. For the same sequence, the “lumen formation of HUVECs (sum of maximum lumina diameter)” value in assay [3] is “significantly inhibited”.
